Earlier results in patent US12263217B2, “Nucleic acid stabilizing solution for vaccines, therapy, diagnostics, storage, and transport” (Daykin Molecular Systems, LLC, priority 2020, dated 2025).

## tris(hydroxymethyl)aminomethane
In vivo
  doses well tolerated: 3.6 grams/50 kg body weight
parenteral
  doses clinically used: up to 500 mg/kg weight
